According to article PMC12799362, “The effect of dimeric bisbenzimidazoles on the activity of DNA repair enzymes TDP1, TDP2, PARP1 and PARP2” (Vavilov Journal of Genetics and Breeding, 2025):

Tests used:
[1] = target: T1, tyrosyl-DNA phosphodiesterase 1 (TDP1) (Homo sapiens, UniProt Q9NUW8); test: Real-time fluorescent detection of TDP1 activity (BHQ1 cleavage from 3′-end of single-stranded FAM oligonucleotide); type: biochemical; details: recombinant TDP1 1.5 nM, 50 nM single-stranded oligonucleotide, 26 °C; mean ± SD, at least three replicates
T1 construct: made in house; host or cells: E. coli
T1 sequence (Q9NUW8 whole entry): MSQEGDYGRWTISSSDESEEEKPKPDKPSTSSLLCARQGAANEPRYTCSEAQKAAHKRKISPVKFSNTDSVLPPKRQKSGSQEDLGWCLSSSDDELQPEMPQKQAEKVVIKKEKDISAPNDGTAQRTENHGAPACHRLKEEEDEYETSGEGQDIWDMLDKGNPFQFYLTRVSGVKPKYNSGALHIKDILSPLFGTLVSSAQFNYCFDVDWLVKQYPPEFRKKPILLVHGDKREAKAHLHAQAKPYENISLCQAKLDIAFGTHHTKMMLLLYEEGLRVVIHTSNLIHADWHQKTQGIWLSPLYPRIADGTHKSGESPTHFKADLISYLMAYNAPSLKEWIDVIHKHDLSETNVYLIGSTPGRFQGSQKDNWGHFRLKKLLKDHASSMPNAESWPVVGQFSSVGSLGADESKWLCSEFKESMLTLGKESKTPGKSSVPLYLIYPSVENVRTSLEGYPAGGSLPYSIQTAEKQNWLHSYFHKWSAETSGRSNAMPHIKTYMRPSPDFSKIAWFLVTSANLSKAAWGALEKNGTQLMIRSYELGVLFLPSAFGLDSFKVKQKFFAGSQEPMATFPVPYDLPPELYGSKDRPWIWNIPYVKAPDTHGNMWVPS
Experimental: (§1) Recombinant human proteins tyrosyl-DNA phosphodiesterase 1 (TDP1) and tyrosyl-DNA phosphodiesterase 2 (TDP2) were expressed in the E. coli system, poly(ADP-ribose) polymerase 1 (PARP1) and poly(ADP-ribose) polymerase 2 (PARP2) were expressed in insect cells using a baculovirus expression system and purified as described in (Sukhanova et al., 2004; Sherstyuk et al., 2019; Dyrkheeva et al., 2020, 2021).
Determination of TDP1 activity. The reaction mixture (200 μl) for real-time fluorescent detection of TDP1 enzyme activity (Zakharenko et al., 2015) contained TDP1 reaction buffer (50 mM Tris-HCl, pH 8.0, 50 mM NaCl, and 7 mM β-mercaptoethanol), 50 nM oligonucleotide 5′-FAM-AAC GTC AGG GTC TTC C-BHQ1-3′, the test compound at various concentrations, and TDP1 at a final concentration of 1.5 nM. The reaction mixtures were incubated at a constant temperature of 26 °C in a POLARstar OPTIMA microplate fluorometer (BMG LABTECH, GmbH, Ortenberg, Germany). Fluorescence intensity (Ex485/Em520 nm) was measured every minute for 10 min. Mean values of half-maximal inhibitory concentration (IC50 – the concentration of the compound that inhibited 50 % of enzyme activity compared to the untreated control well containing only enzyme and substrate) were determined using a dose-response curve of the fluorescence signal level versus inhibitor concentration and calculated using MARS Data Analysis 2.0 (BMG LABTECH). Kinetic curves were obtained in at least three independent experiments and statistically processed in OriginPro 8.6.0 (OriginLab, Northampton, Massachusetts, USA).
The third group of compounds includes derivatives of the monomeric compound MB2Py(Ac), which is an isosteric analog of MB3, due to the fact that the pyrrolecarboxamide fragment contained in its structure can act as a hydrogen atom donor at the carboxamide nitrogen for hydrogen bond formation, in a position analogous to benzimidazole. Dimeric derivatives are represented by the DB2Py(n) series containing n-alkyldicarboxylic acids as a linker. This series is represented by a set of compounds containing 1, 3, 4, 5, 7, 9, and 11 methylene units, which allowed for a more accurate assessment of the dependence of the inhibitory activity of compounds on spacer length. The DB2Py(n) series differs from the DB3(n) series by the presence, in addition to the bisbenzimidazole structure, of a pyrrolecarboxamide structure, which is a fragment of the AT-specific antibiotic netropsin.Using the real-time fluorescence analysis method, halfmaximal inhibitory concentration (IC50) values of the studied compounds (see the Table) were obtained in the reaction of BHQ1 cleavage from the 3′-end of the oligonucleotide by TDP1, which led to an increase in FAM fluorescence at the 5′-end of the chain (Zakharenko et al., 2015). It should also be noted that a single-stranded oligonucleotide was used as substrate to exclude the binding of dimeric bisbenzimidazoles as minor-groove ligands to the DNA substrate and direct their action toward the enzymatic target.

[2] = target: T2, tyrosyl-DNA phosphodiesterase 2 (TDP2) (Homo sapiens, UniProt O95551); test: TDP2 activity, removal of 5′-tyrosine from oligonucleotide substrate, denaturing PAGE; type: biochemical; details: inhibitor 500 μM, TDP2 200 nM, substrate 100 nM, 10 min, 37 °C; mean ± SD; read-out: TDP2 % of residual activity (500 μM)
T2 construct: made in house; host or cells: E. coli
T2 sequence (O95551 1-362): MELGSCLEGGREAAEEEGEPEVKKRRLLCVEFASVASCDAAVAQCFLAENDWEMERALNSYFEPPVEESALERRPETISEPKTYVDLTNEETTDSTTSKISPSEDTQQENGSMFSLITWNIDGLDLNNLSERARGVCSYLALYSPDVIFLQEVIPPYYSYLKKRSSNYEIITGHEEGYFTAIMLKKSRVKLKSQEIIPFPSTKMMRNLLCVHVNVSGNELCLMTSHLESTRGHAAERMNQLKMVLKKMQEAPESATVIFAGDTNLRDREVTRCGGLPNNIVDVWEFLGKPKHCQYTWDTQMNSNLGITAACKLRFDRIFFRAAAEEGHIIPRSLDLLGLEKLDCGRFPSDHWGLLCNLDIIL
Text: as §1
Determination of TDP2 activity. For determination of TDP2 enzyme activity, an oligonucleotide 5′-tyrosine-AAC GTC AGG GTC TTC C-FAM-3′ containing a 6-FAM label at the 3′-end and an L-tyrosine residue attached via the phenolic OH group to the 5′-terminal phosphate was used as substrate, synthesized at the Russian-French-Japanese Laboratory of Bionanotechnology of Novosibirsk State University as described in (Dyrkheeva et al., 2021). The substrate at a concentration of 100 nM was incubated with TDP2 at a concentration of 200 nM in the absence or presence of inhibitor (500 μM) for 10 min at 37 °C in buffer containing 50 mM Tris-HCl, pH 8.0, 50 mM NaCl, 7 mM β-mercaptoethanol (Dyrkheeva et al., 2021). The reaction was stopped by addition of PAGE loading buffer (TBE, 10 % formamide, 7 M urea, 20 mM EDTA, 0.1 % xylene cyanol, and 0.1 % bromophenol blue). The samples were then heated at 90 °C for 5 min. The enzymatic reaction products were separated by electrophoresis in 20 % denaturing PAGE with 7 M urea at an acrylamide to bisacrylamide ratio of 19:1. A high-resolution Typhoon FLA 9500 laser scanner (GE Healthcare, Chicago, Illinois, USA) was used for gel scanning and visualization, and the data were analyzed using QuantityOne 4.6.7 software (Bio- Rad Laboratories, Inc., Hercules, California, USA). At least three independent experiments were performed, and statistical processing was carried out using OriginPro 8.6.0 (OriginLab, Northampton, Massachusetts, USA).
To study the effect of the studied compounds on TDP2 activity, we tested the ability of this enzyme to remove the tyrosine residue from the 5′-end of the oligonucleotide substrate in the absence and presence of inhibitors, as described in (Dyrkheeva et al., 2021).

[3] = target: T3, poly(ADP-ribose) polymerase 1 (PARP1) (Homo sapiens, UniProt P09874); test: PARP1 auto-poly(ADP-ribosyl)ation with [32P]-NAD+; type: biochemical; details: compound 500 μM, PARP1 200 nM, 0.3 mM [32P]-NAD+, 2 min, 37 °C; mean ± SD; read-out: PARP1 % of residual activity (500 μM)
T3 construct: made in house; host or cells: insect cells (baculovirus expression system)
T3 sequence (P09874 whole entry): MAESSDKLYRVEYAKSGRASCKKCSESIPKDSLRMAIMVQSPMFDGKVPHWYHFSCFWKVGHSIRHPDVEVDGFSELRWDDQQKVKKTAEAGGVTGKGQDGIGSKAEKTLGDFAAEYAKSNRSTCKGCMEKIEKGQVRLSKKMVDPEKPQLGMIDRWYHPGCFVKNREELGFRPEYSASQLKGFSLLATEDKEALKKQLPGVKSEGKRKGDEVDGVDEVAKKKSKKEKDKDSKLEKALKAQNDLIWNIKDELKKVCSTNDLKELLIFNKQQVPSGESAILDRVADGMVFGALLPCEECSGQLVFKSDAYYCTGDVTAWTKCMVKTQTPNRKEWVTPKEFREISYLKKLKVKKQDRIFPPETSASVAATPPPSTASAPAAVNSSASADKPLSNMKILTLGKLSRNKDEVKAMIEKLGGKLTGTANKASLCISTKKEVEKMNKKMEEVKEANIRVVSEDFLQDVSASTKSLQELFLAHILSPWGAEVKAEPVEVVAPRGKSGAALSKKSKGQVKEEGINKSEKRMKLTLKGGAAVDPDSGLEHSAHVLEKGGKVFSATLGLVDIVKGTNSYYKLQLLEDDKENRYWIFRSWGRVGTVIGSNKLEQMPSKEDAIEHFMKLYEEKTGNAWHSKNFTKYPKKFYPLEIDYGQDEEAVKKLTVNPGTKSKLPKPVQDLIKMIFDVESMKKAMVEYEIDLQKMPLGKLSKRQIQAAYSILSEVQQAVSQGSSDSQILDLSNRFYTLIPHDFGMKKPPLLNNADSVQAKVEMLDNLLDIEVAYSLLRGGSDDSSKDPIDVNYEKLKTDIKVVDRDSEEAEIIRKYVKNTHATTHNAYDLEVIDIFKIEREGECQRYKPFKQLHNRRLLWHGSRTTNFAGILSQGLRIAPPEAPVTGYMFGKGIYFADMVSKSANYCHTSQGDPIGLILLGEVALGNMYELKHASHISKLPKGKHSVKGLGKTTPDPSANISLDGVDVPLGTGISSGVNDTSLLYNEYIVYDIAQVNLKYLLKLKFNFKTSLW
Text: as §1
(§2) Determination of PARP1 and PARP2 activity. For determination of PARP1 and PARP2 enzyme activity in the presence and absence of test compounds, radiolabeled [32P]-NAD⁺ was synthesized from α-[32P]-ATP according to the protocol (Sherstyuk et al., 2019). The auto-poly(ADPribosyl) ation reaction was performed in buffer for PARP1: 50 mM Tris-HCl, pH 8.0, 10 mM MgCl2, 150 mM NaCl, and 7 mM β-mercaptoethanol, as well as 2 A260 units/ml activated DNA, 0.3 mM [32P]-NAD⁺ at 37 °C. The reaction was initiated by addition of PARP1 to 200 nM and carried out for 2 min
(§3) The buffer for PARP2 contained: 50 mM Tris-HCl, pH 8.0, 3 mM spermine, 150 mM NaCl, and 7 mM β-mercaptoethanol, 2 A260 units/ml activated DNA, 0.6 mM [32P]-NAD⁺ at 37 °C. The reaction was initiated by addition of PARP2 to 600 nM, and the reaction mixtures were incubated for 5 min. The reaction was stopped by placing 5 μl aliquots on Whatman 1 paper filters impregnated with 5 % trichloroacetic acid (TCA). The filters were washed with 5 % TCA four times and air-dried after removal of TCA with 90 % ethanol. The incorporation of the radioactive label into the reaction product was calculated using a Typhoon FLA 9500 scanner (GE Healthcare, Chicago, Illinois, USA). At least three independent experiments were performed.

[4] = test system: poly(ADP-ribose) polymerase 2 (PARP2); test: PARP2 auto-poly(ADP-ribosyl)ation with [32P]-NAD+; type: biochemical, human; details: compound 500 μM, PARP2 600 nM, 0.6 mM [32P]-NAD+, 5 min, 37 °C; mean ± SD
Text: as §1, §2, §3

| SMILES | IC50 [1] | remaining activity at 500 µM [2] | remaining activity at 500 µM [3] | PARP2 % of residual activity (500 μM) [4] |
| --- | --- | --- | --- | --- |
| CN1CCN(c2ccc3nc(-c4ccc5nc(CNC(=O)CN6CCN(CC(=O)NCc7nc8ccc(-c9nc%10ccc(N%11CCN(C)CC%11)cc%10[nH]9)cc8[nH]7)CC6)[nH]c5c4)[nH]c3c2)CC1 [DB2P(1)] | 6000 ± 4000 nM | 66 ± 7% | 57 ± 16% | ~ 100% |
| CCCn1cc(NC(=O)CCCCCCCC(=O)Nc2cc(-c3nc4ccc(-c5nc6ccc(N7CCN(C)CC7)cc6[nH]5)cc4[nH]3)n(CCC)c2)cc1-c1nc2ccc(-c3nc4ccc(N5CCN(C)CC5)cc4[nH]3)cc2[nH]1 [DB2Py(7)] | 280 ± 10 nM | ~100% | ~100% | ~ 100% |
| CN1CCN(c2ccc3nc(-c4ccc5nc(CN)[nH]c5c4)[nH]c3c2)CC1 [MB2] | 2000 ± 1000 nM | ~100% | ~100% | ~ 100% |
| CN1CCN(c2ccc3nc(-c4ccc5nc(-c6ccc7nc(CN)[nH]c7c6)[nH]c5c4)[nH]c3c2)CC1 [MB3] | 700 ± 50 nM | ~100% | 65 ± 15% | ~ 100% |
| CN1CCN(c2ccc3nc(-c4ccc5nc(CNC(=O)CCN6CCN(CCC(=O)NCc7nc8ccc(-c9nc%10ccc(N%11CCN(C)CC%11)cc%10[nH]9)cc8[nH]7)CC6)[nH]c5c4)[nH]c3c2)CC1 [DB2P(2)] | 9000 ± 3000 nM | 44 ± 11% | 51 ± 15% | 80 ± 20% |
| CCCn1cc(NC(=O)CC(=O)Nc2cc(-c3nc4ccc(-c5nc6ccc(N7CCN(C)CC7)cc6[nH]5)cc4[nH]3)n(CCC)c2)cc1-c1nc2ccc(-c3nc4ccc(N5CCN(C)CC5)cc4[nH]3)cc2[nH]1 [DB2Py(1)] | 250 ± 50 nM | 55 ± 3% | ~100% | ~ 100% |
| CN1CCN(c2ccc3nc(-c4ccc5nc(-c6ccc7nc(CNC(=O)CCCCCCCCCC(=O)NCc8nc9ccc(-c%10nc%11ccc(-c%12nc%13ccc(N%14CCN(C)CC%14)cc%13[nH]%12)cc%11[nH]%10)cc9[nH]8)[nH]c7c6)[nH]c5c4)[nH]c3c2)CC1 [DB3(9)] | > 50000 nM | ~100% | ~100% | ~ 100% |
| CCCn1cc(NC(=O)CCCCC(=O)Nc2cc(-c3nc4ccc(-c5nc6ccc(N7CCN(C)CC7)cc6[nH]5)cc4[nH]3)n(CCC)c2)cc1-c1nc2ccc(-c3nc4ccc(N5CCN(C)CC5)cc4[nH]3)cc2[nH]1 [DB2Py(4)] | 400 ± 150 nM | ~100% | ~100% | ~ 100% |
| CCCn1cc(NC(=O)CCCC(=O)Nc2cc(-c3nc4ccc(-c5nc6ccc(N7CCN(C)CC7)cc6[nH]5)cc4[nH]3)n(CCC)c2)cc1-c1nc2ccc(-c3nc4ccc(N5CCN(C)CC5)cc4[nH]3)cc2[nH]1 [DB2Py(3)] | 410 ± 90 nM | 70 ± 11% | ~100% | ~ 100% |
| CN1CCN(c2ccc3nc(-c4ccc5nc(-c6ccc7nc(CNC(=O)CCCCN8CCN(CCCCC(=O)NCc9nc%10ccc(-c%11nc%12ccc(-c%13nc%14ccc(N%15CCN(C)CC%15)cc%14[nH]%13)cc%12[nH]%11)cc%10[nH]9)CC8)[nH]c7c6)[nH]c5c4)[nH]c3c2)CC1 [DB3P(4)] | 150 ± 30 nM | ~100% | 48 ± 15% | ~ 100% |
| CN1CCN(c2ccc3nc(-c4ccc5nc(-c6ccc7nc(CNC(=O)CC(=O)NCc8nc9ccc(-c%10nc%11ccc(-c%12nc%13ccc(N%14CCN(C)CC%14)cc%13[nH]%12)cc%11[nH]%10)cc9[nH]8)[nH]c7c6)[nH]c5c4)[nH]c3c2)CC1 [DB3(1)] | > 50000 nM | 70 ± 6% | 55 ± 13% | ~ 100% |
| CCCn1cc(NC(=O)CCCCCC(=O)Nc2cc(-c3nc4ccc(-c5nc6ccc(N7CCN(C)CC7)cc6[nH]5)cc4[nH]3)n(CCC)c2)cc1-c1nc2ccc(-c3nc4ccc(N5CCN(C)CC5)cc4[nH]3)cc2[nH]1 [DB2Py(5)] | 350 ± 130 nM | ~100% | ~100% | ~ 100% |
| CN1CCN(c2ccc3nc(-c4ccc5nc(CNC(=O)CCCN6CCN(CCCC(=O)NCc7nc8ccc(-c9nc%10ccc(N%11CCN(C)CC%11)cc%10[nH]9)cc8[nH]7)CC6)[nH]c5c4)[nH]c3c2)CC1 [DB2P(3)] | 4100 ± 600 nM | 36 ± 7% | 37 ± 10% | 64 ± 16% |
